From patent publication US20230131899A1, “INHIBITORS OF MICROBIALLY INDUCED AMYLOID” (Axial Therapeutics, Inc., priority 2020, published 2023)
Read-outs that look alike come from different tables or passages of the source.

Target: T1, E. coli CsgA (Escherichia coli, UniProt P28307)
T1 construct: made in house; host or cells: E. coli NEB 3016 slyD::kan, pET11d
Experiment: In vitro ThioflavinT assay of CsgA aggregation (CsgA ThT Assay)
Type: biochemical
Details: for remaining activity at 25 µM: compound 25 μM; for remaining activity at 100 µM: compound 100 μM
Protocol: In vitro ThioflavinT assay to determine effects of compounds on CsgA aggregation. To assess the effects of compounds on aggregation of E. coli CsgA, a cell-free assay was performed using purified CsgA and Thioflavin T. In the assay, histidine-tagged CsgA was over-expressed in E. coli NEB 3016 slyD::kan cells harboring a pET11d vector containing a C-terminal 6× His tag. Following growth in rich media, CsgA production is induced at an OD600 of approximately 1.0 by addition of 0.5 mM IPTG (isopropyl beta-D-1-thiogalactopyranoside) followed by incubation at 37° C. for 1-4 hours with shaking at 200-250 rpm. Bacteria were resuspended in 8 M guanidine hydrochloride in 50 mM potassium phosphate buffer, pH 7.3 and lysed by sonication on ice using three 20 second intervals. The resulting lysate was incubated on a platform rocker for 1 hour at room temperature. After centrifugation at 10,000×g for 20 minutes, the supernatant was further sonicated on ice for three 20 second intervals and then incubated with nickel-nitrilotriacetic acid resin (Sigma) at room temperature for 1 hour in a 50 mL conical tube on a platform rocker. The resin was washed and pelleted 5 times with 45 mL 8 M guanidine in 50 mM potassium phosphate buffer pH 7.3. The resin was further washed and pelleted two times with 8 M guanidine hydrochloride in 50 mM potassium phosphate buffer pH 7.3 containing 12.5 mM imidazole. Purified CsgA protein was eluted two times with 5 mL of 6-8 M guanidine hydrochloride in 50 mM potassium phosphate buffer, pH 7.3 containing 250 mM imidazole. The eluted protein was aliquoted with 150 μL per aliquot, snap frozen in liquid nitrogen, and stored at −80 C. In order to obtain monomeric CsgA, the purified CsgA protein was thawed and passed through two pre-chilled desalting columns (Zeba) to remove imidazole and guanidine. The buffer exchanged protein was loaded onto a 30-kDa centrifugal filter unit (Amicon) and spun for 30 minutes at 7500×g to remove dimers and other oligomers. Protein concentration was assessed by the NanoDrop technique (Thermo Scientific), as is familiar to one skilled in the art. The CsgA aggregation assay was conducted in 96-well black non-binding surface or white untreated microplates with 20-40 μM ThioflavinT, 50 mM potassium phosphate buffer pH 7.3, 1% DMSO, CsgA at 2-20 μM, and compounds at 3.125-200 uM. The vehicle control wells contain all components of the assay except test compounds and represent the level of CsgA aggregation in the absence of any inhibitor or accelerator. Plates were incubated at room temperature in a Tecan Nano F200 plate reader with excitation at 438 nm using a 439 nm filter with a bandwidth of 8 nm, and emission at 495 nm with a 490 nm filter with a bandwidth of 10 nm, or in a SpectraMax M5, SpectraMax M2 or SpectraMax® i3X (Molecular Devices, San Jose, Calif.) spectrophotometer with excitation at 438 nm and emission at 495 nm. During the assay, plates were shaken initially for 5 seconds and subsequently for 3 seconds prior to fluorescent readings. Readings were performed every 15 minutes for up to 1005 minutes. The effect of compounds on CsgA aggregation in the assay was determined with data from 0-17 hours. Fluorescence values for each compound with CsgA were first adjusted by subtracting the average fluorescence of the compound in the absence of CsgA or in the presence of CsgA and compound at time 0 or 15 minutes. The data were analyzed in several ways:
1. The adjusted ThT fluorescence values were normalized by dividing them by the average fluorescence in the vehicle control wells containing CsgA. The median normalized fluorescence from 6-6.5 hours or 8-9 hours with the compound was expressed as a percentage of the median fluorescence observed in vehicle controls over the same time period. Percent inhibition of CsgA aggregation by a compound was determined by subtracting the percent average fluorescence with the compound relative to the vehicle controls from 100%. […]

[1] = read-out: CsgA ThT Assay (2 μM CsgA) % Control Bmax 25 μM, activity range, class symbol, CsgA 2 μM, white plates
[2] = read-out: CsgA ThT Assay (2 μM CsgA) % Control Bmax 25 μM, mean Bmax as percentage of DMSO control, CsgA 2 μM, white plates
[3] = read-out: CsgA ThT Assay (2 μM CsgA) % Control Bmax 100 μM, activity range, class symbol, CsgA 2 μM, white plates
[4] = read-out: CsgA ThT Assay (2 μM CsgA) % Control Bmax 100 μM, mean Bmax as percentage of DMSO control, CsgA 2 μM, white plates
[5] = read-out: CsgA ThT Assay (10 μM CsgA) % Control AUC at 1005 minutes, 25 μM (activity range), CsgA 10 μM, black plates, 1005 minutes, class symbol
[6] = read-out: CsgA ThT Assay (10 μM CsgA) % Control AUC at 1005 minutes, 25 μM, mean AUC as % of DMSO control, CsgA 10 μM, black plates, 1005 minutes
[7] = read-out: CsgA ThT Assay (10 μM CsgA) % Control AUC at 1005 minutes, 100 μM (activity range), CsgA 10 μM, black plates, 1005 minutes, class symbol
[8] = read-out: CsgA ThT Assay (10 μM CsgA) % Control AUC at 1005 minutes, 100 μM, mean AUC as % of DMSO control, CsgA 10 μM, black plates, 1005 minutes

T1 sequence (P28307 23-151): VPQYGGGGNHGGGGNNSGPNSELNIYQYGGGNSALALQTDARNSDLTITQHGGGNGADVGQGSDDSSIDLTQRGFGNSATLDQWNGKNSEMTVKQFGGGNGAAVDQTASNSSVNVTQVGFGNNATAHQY

Structure (SMILES) | remaining activity at 25 µM [1] [%] | remaining activity at 25 µM [2] [%] | remaining activity at 100 µM [3] [%] | remaining activity at 100 µM [4] [%] | remaining activity at 25 µM [5] [%] | remaining activity at 25 µM [6] [%] | remaining activity at 100 µM [7] [%] | remaining activity at 100 µM [8] [%]
CCCN1CC(C(=O)O)n2c(c(-c3cccc(C(F)(F)F)c3)c(Cc3cccc4ccccc34)c(OCc3ccccc3)c2=O)S1(=O)=O (centres unmarked) [Compound 146, 7-(benzyloxy)-8-(naphthalen-1-ylmethyl)-6-oxo-2-propyl-9-(3-(trifluoromethyl)phenyl)-3,4-dihydro-2H,6H-pyrido[1,2-e][1,2,5]thiadiazine-4-carboxylic acid 1,1-dioxide] | > 60 | 113 | > 60 | 63 | – | – | – | –
CCCOc1c(Cc2cccc3ccccc23)c(-c2cccc(C(F)(F)F)c2)c2n(c1=O)C(C(=O)O)CN(CCC)S2(=O)=O (centres unmarked) [Compound 147, 8-(naphthalen-1-ylmethyl)-6-oxo-7-propoxy-2-propyl-9-(3-(trifluoromethyl)phenyl)-3,4-dihydro-2H,6H-pyrido[1,2-e][1,2,5]thiadiazine-4-carboxylic acid 1,1-dioxide] | > 60 | 101 | > 60 | 139 | – | – | – | –
O=C(O)C1CN(Cc2ccccc2)c2c(-c3cccc(C(F)(F)F)c3)c(CN3CCCCC3)c(Cl)c(=O)n21 (centres unmarked) [Compound 218, 1-benzyl-6-chloro-5-oxo-7-(piperidin-1-ylmethyl)-8-(3-(trifluoromethyl)phenyl)-1,2,3,5-tetrahydroimidazo[1,2-a]pyridine-3-carboxylic acid] | > 60 | 115 | > 60 | 109 | – | – | – | –
CCc1c(Cc2cccc3ccccc23)c(-c2cccc(C(F)(F)F)c2)c2n(c1=O)C(C(=O)O)CN(C)S2(=O)=O (centres unmarked) [Compound 076, 7-ethyl-2-methyl-8-(naphthalen-1-ylmethyl)-6-oxo-9-(3-(trifluoromethyl)phenyl)-3,4-dihydro-2H,6H-pyrido[1,2-e][1,2,5]thiadiazine-4-carboxylic acid 1,1-dioxide] | – | – | – | – | 11 to 31 | 17 | 11 to 31 | 14
CCCN1CC(C(=O)O)n2c(c(-c3cccc(C(F)(F)F)c3)c(Cc3cccc4ccccc34)c(OC(C)C)c2=O)S1(=O)=O (centres unmarked) [Compound 148, 7-isopropoxy-8-(naphthalen-1-ylmethyl)-6-oxo-2-propyl-9-(3-(trifluoromethyl)phenyl)-3,4-dihydro-2H,6H-pyrido[1,2-e][1,2,5]thiadiazine-4-carboxylic acid 1,1-dioxide] | > 60 | 79 | > 60 | 113 | – | – | – | –
O=C(O)CCCCN1CC(C(=O)O)n2c(c(-c3cccc(C(F)(F)F)c3)c(Cc3cccc4ccccc34)cc2=O)S1(=O)=O (centres unmarked) [Compound 039, 2-(4-carboxybutyl)-8-(naphthalen-1-ylmethyl)-6-oxo-9-(3-(trifluoromethyl)phenyl)-3,4-dihydro-2H,6H-pyrido[1,2-e][1,2,5]thiadiazine-4-carboxylic acid 1,1-dioxide] | – | – | – | – | > 60 | 92 | 11 to 31 | 24
Cn1cc(C(=O)O)n2c(=O)cc(Cc3cccc4ccccc34)c(-c3cccc(C(F)(F)F)c3)c12 [Compound 111, 1-methyl-7-(naphthalen-1-ylmethyl)-5-oxo-8-(3-(trifluoromethyl)phenyl)-1,5-dihydroimidazo[1,2-a]pyridine-3-carboxylic acid] | – | – | – | – | > 60 | 98 | > 60 | 95
O=C(O)C1CN(C(=O)OCc2ccccc2)c2c(-c3cccc(C(F)(F)F)c3)c(Cc3cccc4ccccc34)cc(=O)n21 (centres unmarked) [Compound 103, 1-((benzyloxy)carbonyl)-7-(naphthalen-1-ylmethyl)-5-oxo-8-(3-(trifluoromethyl)phenyl)-1,2,3,5-tetrahydroimidazo[1,2-a]pyridine-3-carboxylic acid] | – | – | – | – | > 60 | 95 | > 60 | 102
O=C(O)[C@H]1CNS(=O)(=O)c2c(-c3cccc(C(F)(F)F)c3)c(Cc3cccc4ccccc34)cc(=O)n21 (single isomer, unassigned) [Compound 009b] | – | – | – | – | > 60 | 67 | 31 to 60 | 37
O=C(O)[C@@H]1CNS(=O)(=O)c2c(-c3cccc(C(F)(F)F)c3)c(Cc3cccc4ccccc34)cc(=O)n21 (single isomer, unassigned) [Compound 009a] | – | – | – | – | 31 to 60 | 46 | 11 to 31 | 17
CCCN1CC(C(=O)O)n2c(c(-c3cccc(C(F)(F)F)c3)c(Cc3cccc4ccccc34)c(NC(C)C)c2=O)S1(=O)=O (centres unmarked) [Compound 149, 7-(isopropylamino)-8-(naphthalen-1-ylmethyl)-6-oxo-2-propyl-9-(3-(trifluoromethyl)phenyl)-3,4-dihydro-2H,6H-pyrido[1,2-e][1,2,5]thiadiazine-4-carboxylic acid 1,1-dioxide] | > 60 | 98 | > 60 | 115 | – | – | – | –
